Literature values, collected in patent US20090030075A1, “Remedy for and Method of Treating Ischemic Cerebral Stroke” (priority 2005, published 2009).

Tested on: cerebral infarction lesion
Settings: FR139317 used together with SUN9216

Structure (SMILES): CC(C)C[C@H](NC(=O)N1CCCCCC1)C(=O)N[C@H](Cc1cn(C)c2ccccc12)C(=O)N[C@H](Cc1ccccn1)C(=O)O [FR139317]
- activity of inhibiting development of a cerebral infarction lesion: this effect disappears
